Results taken from patent US20200316091A1, “METHOD FOR PROVIDING CONTRACEPTION” (LABORATOIRE HRA-PHARMA, priority 2019, published 2020).

Key:
ovulation in women = details: COC started two days after ulipristal acetate intake; cited from earlier work
[1] = test system: ovarian activity and ovulation in women; assay: Prospective, randomized, parallel-group clinical study of ovarian activity after ellaOne taken after three missed COC pills; type: in vivo; details: for ovulation with risk of pregnancy: Arm 1, COC resumed same day as UPA 30 mg, any time of experimental cycle, N=26
Method: To determine the effect on ovarian activity and ovulation, of waiting five days before re-starting combined oral contraception (COC), or restarting immediately, having taken ulipristal acetate (UPA) for emergency contraception (EC) after missing three COC pills.
Women were enrolled for three cycles of COC use in a 21/7 regimen. In cycle 3 all women omitted COC pills for three consecutive days (days 5, 6, 7) and on day 8 took UPA-EC (30 mg). Half the women restarted their COC pills that same day while the remainder waiting for five days before restarting. Transvaginal ultrasound (TVUS) and blood sampling for estrogen and progesterone (E and P) was undertaken in all women on days 4, 8, 11, 13, 15, 18, 22 and 26. If a follicle of >13 mm diameter was seen, TVUS and blood sampling were performed daily until a post-ovulatory follicle was seen.
Women aged 18-30, weighing ≤30 kg/m^2 participated in the study during use of three consecutive packets of COCP. Women with contraindications to the COC or with conditions associated with anovulation (e.g. polycystic ovarian syndrome), and women who were breastfeeding or using any other hormonal contraception or an intrauterine device (IUD) were excluded. Screening was undertaken during cycle 1. Throughout the study women kept a daily diary of pill intake and vaginal bleeding. All women were instructed to take their pills at the same time every evening and to follow standard rules during the first two cycles of pill use for missed pills or for vomiting after taking a pill. The duration of COC intake in cycle 1 was adjusted (to no less than 14 and no more than 21 pills) to allow the first day of cycle 2 (baseline cycle—BSL) to fall on a weekday. After a seven-day hormone free interval (HFI) all women switched to the study COC containing 30 μg ethinyl estradiol/150 μg levonorgestrel with seven placebo tablets. Cycle three (Experimental cycle—EXP), started after a seven-day HFI at the end of BSL. After transvaginal ultrasound (TVUS) on day 1 of pill intake women were randomized so that an equal number of women with ovarian follicles of diameter ≤10 mm, or >10 mm and ≤13 mm or >13 mm were allocated to one of two study arms. After 4 days of COC, all women deliberately missed their COC pill on three consecutive days (5, 6, 7) and on the morning of day 8 all took a single 30 mg tablet of ellaOne® (ulipristal acetate 30 mg). Women in arm 1 of the study (immediate re-start) resumed daily COC intake that evening (D8) while those in arm 2 waited 5 days, re-starting their OC pill on the evening of D13 (delayed re-start). Once restarted, the COCP was continued until the packet was finished. A high sensitivity urinary pregnancy test was undertaken on day 1 of BSL and EXP and at the final study visit one or two days after the HFI following the end of the pill pack. Adverse event information was collected at every visit and blood sampling for haemoglobin and liver function was performed four times during the study.
An ovarian activity score developed from the Hoogland score (Hoogland and Skouby 1993, Contraception, 1993. 47(6): p. 583-90). The ovary was considered quiescent (OSq) if estradiol concentration was ≤0.1 nmol/L and progesterone ≤5 nmol/L even if a follicle of >13 mm was present. […] Ovulation was considered at risk of pregnancy (OSp) if there was a postovulatory image on TVUS and progesterone concentrations were >30 nmol/L on one occasion or between 10-30 nmol/L on two consecutive occasions.
The proportion of women who were at risk of pregnancy (OSp) at any time during the experimental cycle, including those who ovulated within the five days following ellaOne® intake, was estimated and the exact (Clopper-Pearson) two-sided 95% confidence interval was provided for each arm. The difference between the two arms was tested through an exact without stratum adjustment due to insufficient number of women in the self-weighted strata. […]

[2] = Arm 1 immediate COCP re-start (D8), experimental cycle D 1
[3] = Arm 1 immediate COCP re-start (D8), experimental cycle D 4
[4] = Arm 1 immediate COCP re-start (D8), experimental cycle D 8
[5] = Arm 1 immediate COCP re-start (D8), experimental cycle D 11
[6] = Arm 1 immediate COCP re-start (D8), experimental cycle D 13
[7] = Arm 1 immediate COCP re-start (D8), experimental cycle D 15
[8] = Arm 1 immediate COCP re-start (D8), experimental cycle D 18
[9] = Arm 1 immediate COCP re-start (D8), experimental cycle D 22
[10] = Arm 1 immediate COCP re-start (D8), experimental cycle D 26
[11] = Arm 2 delayed COCP re-start (D13), experimental cycle D 1
[12] = Arm 2 delayed COCP re-start (D13), experimental cycle D 4
[13] = Arm 2 delayed COCP re-start (D13), experimental cycle D 8
[14] = Arm 2 delayed COCP re-start (D13), experimental cycle D 11
[15] = Arm 2 delayed COCP re-start (D13), experimental cycle D 13
[16] = Arm 2 delayed COCP re-start (D13), experimental cycle D 15
[17] = Arm 2 delayed COCP re-start (D13), experimental cycle D 18
[18] = Arm 2 delayed COCP re-start (D13), experimental cycle D 22
[19] = Arm 2 delayed COCP re-start (D13), experimental cycle D 26

CC(=O)O[C@]1(C(C)=O)CC[C@H]2[C@@H]3CCC4=CC(=O)CCC4=C3[C@@H](c3ccc(N(C)C)cc3)C[C@@]21C [ellaOne, 17α-acetoxy-11β-[4-N,N-dimethylamino-phenyl]-19-norpregna-4,9-diene-3,20-dione]
effect of starting COC on efficacy of ulipristal acetate to inhibit or delay ovulation (ovulation in women): significantly impairs efficacy | ovulation with risk of pregnancy ([1]; listed as Ella): no ovulation at risk of pregnancy occurred | ovulation with risk of pregnancy ([1]; listed as Ellaone): no woman | number of women with ovarian activity without risk of pregnancy (OSa) ([1]; Arm 1, immediate COC re-start, experimental cycle): one | OSa (ovarian activity not at risk of pregnancy), women with status/women monitored [1, 2]: 0/26 | OSp (ovulation at risk of pregnancy), women with status/women monitored [1, 2]: 0/26 | OSq (ovary quiescent), women with status/women monitored [1, 2]: 26/26 | OSa (ovarian activity not at risk of pregnancy), women with status/women monitored [1, 3]: 1/26 | OSp (ovulation at risk of pregnancy), women with status/women monitored [1, 3]: 0/26 | OSq (ovary quiescent), women with status/women monitored [1, 3]: 25/26 | OSa (ovarian activity not at risk of pregnancy), women with status/women monitored [1, 4]: 2/26 | OSp (ovulation at risk of pregnancy), women with status/women monitored [1, 4]: 0/26 | OSq (ovary quiescent), women with status/women monitored [1, 4]: 24/26 | OSa (ovarian activity not at risk of pregnancy), women with status/women monitored [1, 5]: 1/26 | OSp (ovulation at risk of pregnancy), women with status/women monitored [1, 5]: 0/26 | OSq (ovary quiescent), women with status/women monitored [1, 5]: 25/26 | OSa (ovarian activity not at risk of pregnancy), women with status/women monitored [1, 6]: 1/26 | OSp (ovulation at risk of pregnancy), women with status/women monitored [1, 6]: 0/26 | OSq (ovary quiescent), women with status/women monitored [1, 6]: 25/26 | OSa (ovarian activity not at risk of pregnancy), women with status/women monitored [1, 7]: 1/26 | OSp (ovulation at risk of pregnancy), women with status/women monitored [1, 7]: 0/26 | OSq (ovary quiescent), women with status/women monitored [1, 7]: 25/26 | OSa (ovarian activity not at risk of pregnancy), women with status/women monitored [1, 8]: 1/26 | OSp (ovulation at risk of pregnancy), women with status/women monitored [1, 8]: 0/26 | OSq (ovary quiescent), women with status/women monitored [1, 8]: 25/26 | OSa (ovarian activity not at risk of pregnancy), women with status/women monitored [1, 9]: 1/26 | OSp (ovulation at risk of pregnancy), women with status/women monitored [1, 9]: 0/26 | OSq (ovary quiescent), women with status/women monitored [1, 9]: 25/26 | OSa (ovarian activity not at risk of pregnancy), women with status/women monitored [1, 10]: 1/26 | OSp (ovulation at risk of pregnancy), women with status/women monitored [1, 10]: 0/26 | OSq (ovary quiescent), women with status/women monitored [1, 10]: 24/25 | proportion of women who ovulated with risk of pregnancy ([1]; Arm 2, COC re-start delayed five days after UPA 30 mg, experimental cycle, CI 5.0-38.8, p=0.042 vs Arm 1): 17.4% | number of women who ovulated with risk of pregnancy ([1]; Arm 2, COC re-start delayed five days, more than 5 days after UPA-EC, before end of experimental cycle, N=23): Four | number of women with resumption of follicle growth ([1]; Arm 2, delayed COC re-start, remainder of experimental cycle): Eight | OSa (ovarian activity not at risk of pregnancy), women with status/women monitored [1, 11]: 1/23 | OSp (ovulation at risk of pregnancy), women with status/women monitored [1, 11]: 0/23 | OSq (ovary quiescent), women with status/women monitored [1, 11]: 22/23 | OSa (ovarian activity not at risk of pregnancy), women with status/women monitored [1, 12]: 3/23 | OSp (ovulation at risk of pregnancy), women with status/women monitored [1, 12]: 0/23 | OSq (ovary quiescent), women with status/women monitored [1, 12]: 20/23 | OSa (ovarian activity not at risk of pregnancy), women with status/women monitored [1, 13]: 4/23 | OSp (ovulation at risk of pregnancy), women with status/women monitored [1, 13]: 0/23 | OSq (ovary quiescent), women with status/women monitored [1, 13]: 19/23 | OSa (ovarian activity not at risk of pregnancy), women with status/women monitored [1, 14]: 6/23 | OSp (ovulation at risk of pregnancy), women with status/women monitored [1, 14]: 0/23 | OSq (ovary quiescent), women with status/women monitored [1, 14]: 17/23 | OSa (ovarian activity not at risk of pregnancy), women with status/women monitored [1, 15]: 5/22 | OSp (ovulation at risk of pregnancy), women with status/women monitored [1, 15]: 0/22 | OSq (ovary quiescent), women with status/women monitored [1, 15]: 17/22 | OSa (ovarian activity not at risk of pregnancy), women with status/women monitored [1, 16]: 7/23 | OSp (ovulation at risk of pregnancy), women with status/women monitored [1, 16]: 0/23 | OSq (ovary quiescent), women with status/women monitored [1, 16]: 16/23 | OSa (ovarian activity not at risk of pregnancy), women with status/women monitored [1, 17]: 8/23 | OSp (ovulation at risk of pregnancy), women with status/women monitored [1, 17]: 1/23 | OSq (ovary quiescent), women with status/women monitored [1, 17]: 14/23 | OSa (ovarian activity not at risk of pregnancy), women with status/women monitored [1, 18]: 2/23 | OSp (ovulation at risk of pregnancy), women with status/women monitored [1, 18]: 4/23 | OSq (ovary quiescent), women with status/women monitored [1, 18]: 17/23 | OSa (ovarian activity not at risk of pregnancy), women with status/women monitored [1, 19]: 4/23 | OSp (ovulation at risk of pregnancy), women with status/women monitored [1, 19]: 4/23 | OSq (ovary quiescent), women with status/women monitored [1, 19]: 15/23 | interference between the COC and EllaOne ([1]; COC resumed the same day as EllaOne 30 mg): no interference
